Measured values reported in ChEMBL document CHEMBL1201862, “PubChem BioAssay data set” (2004).
Activity calls are given as the source filed them.

Tests used:
[1] = IGROV1 ovarian cancer cell cytotoxicity, dose response, PAX8 inhibitor project, plate reader, dry powder samples (AID 743043); type: functional, cell-based; details: IGROV-1
[2] = target: Paired box protein Pax-8 (Homo sapiens, UniProt Q06710); test: inhibitors of PAX8-driven TPO luciferase reporter, dose response, RMG-I cells, cherry-pick (AID 687027); type: functional, cell-based;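 note: luciferase reporter driven by Pax8 target thyroperoxidase promoter measured by SteadyGlo luminescence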
Paired box protein Pax-8, sequence (Q06710 whole entry): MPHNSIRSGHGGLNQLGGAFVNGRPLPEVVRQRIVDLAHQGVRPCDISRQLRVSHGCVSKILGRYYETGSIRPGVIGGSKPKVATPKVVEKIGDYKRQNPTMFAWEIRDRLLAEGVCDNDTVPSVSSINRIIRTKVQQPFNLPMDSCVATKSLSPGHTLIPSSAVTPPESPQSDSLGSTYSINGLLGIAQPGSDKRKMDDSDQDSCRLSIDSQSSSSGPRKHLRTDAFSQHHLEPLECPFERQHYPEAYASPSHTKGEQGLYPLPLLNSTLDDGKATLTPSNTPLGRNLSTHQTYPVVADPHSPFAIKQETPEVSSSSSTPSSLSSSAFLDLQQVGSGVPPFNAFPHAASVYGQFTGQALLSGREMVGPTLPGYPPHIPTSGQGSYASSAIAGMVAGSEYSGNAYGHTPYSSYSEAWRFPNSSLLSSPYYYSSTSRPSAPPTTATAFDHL

[3] = A2780 ovarian cancer cell cytotoxicity, dose response, cytotoxicity control, plate reader, dry powder samples (AID 743046); type: functional, cell-based
[4] = HepG2 cell cytotoxicity, dose response, cytotoxicity control, cherry-picked samples (AID 1159577); type: functional, cell-based
[5] = non-specific cell cytotoxicity, dose response, cytotoxicity control for PAX8 inhibitor project, plate reader, dry powder samples (AID 743021); type: functional, cell-based
[6] = cytotoxicity in OVCAR8 ovarian cancer cells, dose response, PAX8 project, cell-based, plate reader, dry powder samples (AID 743197); type: functional; details: OVCAR-8
[7] = NIH:OVCAR-3 ovarian cancer cell cytotoxicity, dose response, PAX8 inhibitor project, plate reader, dry powder samples (AID 743044); type: functional, cell-based
[8] = P. falciparum Dd2 growth inhibitors, dose response, SYBR Green, cherry-picked samples (AID 1159567); type: functional, cell-based
[9] = IOSE-T80 ovarian epithelial cell cytotoxicity, dose response, cytotoxicity control for PAX8 inhibitor project, plate reader, dry powder samples (AID 743045); type: functional, cell-based
[10] = tested on: HeLa; test: HeLa cell cytotoxicity, dose response, cytotoxicity control, ATP luminescence, cherry-pick samples (AID 687004); type: functional, cell-based; details: Homo sapiens
[11] = cytotoxicity in OV-90 ovarian cancer cells, dose response, PAX8 inhibitor project, cell-based, plate reader, dry powder, SA8 (AID 743149); type: functional
[12] = PAX5 activity inhibitors, dose response, selectivity assay for PAX8 inhibitor project, cell-based, plate reader, dry powder samples (AID 743047); type: functional;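 note: HEK293 cells carrying a Pax5 driven CD19 promoter luciferase reporter; potency of inhibitors that lower reporter luminescence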
[13] = cytotoxicity in COV434 cells, dose response, cytotoxicity control for PAX8 inhibitor project, cell-based, plate reader, dry powder, SA7 (AID 743145); type: functional
[14] = cytotoxicity in COV362 ovarian cancer cells, dose response, cytotoxicity control for PAX8 inhibitor project, cell-based, plate reader, dry powder, SA12 (AID 743144); type: functional
[15] = PAX2 cell-based inhibition, dose response, selectivity assay for PAX8 inhibitor project, plate reader, dry powder samples (AID 743048); type: functional;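 note: HEK293 cells carrying a WT1 promoter luciferase reporter driven by expressed Pax2; potency is for inhibition of Pax2 driven reporter signal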
[16] = cytotoxicity dependent on PAX8, dose response, cell-based, plate reader, dry powder (AID 743049); type: functional
[17] = target: Delta-type opioid receptor (Homo sapiens, UniProt P41143); test: Late-stage results from the probe development effort to identify antagonists of OPRK1: fluorescence-based cell-based dose response OPRD1 counterscreen.; type: functional
Delta-type opioid receptor, sequence (P41143 whole entry): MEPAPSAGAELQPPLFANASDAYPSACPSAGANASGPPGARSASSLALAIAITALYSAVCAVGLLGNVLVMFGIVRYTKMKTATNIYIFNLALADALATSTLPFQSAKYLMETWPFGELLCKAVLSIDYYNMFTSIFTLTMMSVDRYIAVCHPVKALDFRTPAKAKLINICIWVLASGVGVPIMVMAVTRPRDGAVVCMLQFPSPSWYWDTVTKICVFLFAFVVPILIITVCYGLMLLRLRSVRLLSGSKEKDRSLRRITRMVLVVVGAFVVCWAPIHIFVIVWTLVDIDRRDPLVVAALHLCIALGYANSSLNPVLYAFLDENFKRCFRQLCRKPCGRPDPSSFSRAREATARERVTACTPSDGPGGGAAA

[18] = target: Mu-type opioid receptor (Homo sapiens, UniProt P35372); test: Late-stage results from the probe development effort to identify antagonists of OPRK1: luminescence-based cell-based dose response OPRM1 counterscreen.; type: functional
Mu-type opioid receptor, sequence (P35372 whole entry): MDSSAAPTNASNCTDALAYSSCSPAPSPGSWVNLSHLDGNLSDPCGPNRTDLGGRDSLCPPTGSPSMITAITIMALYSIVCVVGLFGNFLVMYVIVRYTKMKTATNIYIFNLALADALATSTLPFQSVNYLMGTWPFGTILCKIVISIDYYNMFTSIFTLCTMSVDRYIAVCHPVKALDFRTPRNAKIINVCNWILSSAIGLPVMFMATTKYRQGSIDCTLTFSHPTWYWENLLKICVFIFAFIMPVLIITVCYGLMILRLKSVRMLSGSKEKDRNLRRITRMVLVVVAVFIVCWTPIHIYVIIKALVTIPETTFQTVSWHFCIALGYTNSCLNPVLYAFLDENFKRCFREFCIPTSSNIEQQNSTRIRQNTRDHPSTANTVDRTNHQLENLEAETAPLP

[19] = tested on: INS1; test: beta cell apoptosis inhibitors, cytokine rescue, dose response, luminescence, retest (AID 449756); type: functional, cell-based; details: Rattus norvegicus;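 note: cell death triggered by IL-1 beta plus TNF-alpha plus IFN-gamma mixture; protective hits raise ATP signal compared with cytokine alone wells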
[20] = miR-122 activators in hepatoma reporter cells, dose response, cell-based, Huh7 psiCHECK-miR122, Renilla luciferase, cherry-picked (AID 651956); type: functional;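 note: huh7 hepatoma cells stably carrying a psiCHECK-2 miR-122 sensor plasmid; renilla luciferase signal reporting endogenous miR-122 activity after 48 h compound exposure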
[21] = HEK293T cytotoxicity, dose response, cytotoxicity control for miR-122 modulator project, cell-based, activator set, cherry-pick (AID 720690); type: functional;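 note: HEK293T human cells scored for general mammalian cytotoxicity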
[22] = target: Protein-tyrosine kinase 2-beta (Homo sapiens, UniProt Q14289);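 note: potency of inhibitors of PYK2 kinase phosphorylation of poly-GT substrate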
Protein-tyrosine kinase 2-beta, sequence (Q14289 whole entry): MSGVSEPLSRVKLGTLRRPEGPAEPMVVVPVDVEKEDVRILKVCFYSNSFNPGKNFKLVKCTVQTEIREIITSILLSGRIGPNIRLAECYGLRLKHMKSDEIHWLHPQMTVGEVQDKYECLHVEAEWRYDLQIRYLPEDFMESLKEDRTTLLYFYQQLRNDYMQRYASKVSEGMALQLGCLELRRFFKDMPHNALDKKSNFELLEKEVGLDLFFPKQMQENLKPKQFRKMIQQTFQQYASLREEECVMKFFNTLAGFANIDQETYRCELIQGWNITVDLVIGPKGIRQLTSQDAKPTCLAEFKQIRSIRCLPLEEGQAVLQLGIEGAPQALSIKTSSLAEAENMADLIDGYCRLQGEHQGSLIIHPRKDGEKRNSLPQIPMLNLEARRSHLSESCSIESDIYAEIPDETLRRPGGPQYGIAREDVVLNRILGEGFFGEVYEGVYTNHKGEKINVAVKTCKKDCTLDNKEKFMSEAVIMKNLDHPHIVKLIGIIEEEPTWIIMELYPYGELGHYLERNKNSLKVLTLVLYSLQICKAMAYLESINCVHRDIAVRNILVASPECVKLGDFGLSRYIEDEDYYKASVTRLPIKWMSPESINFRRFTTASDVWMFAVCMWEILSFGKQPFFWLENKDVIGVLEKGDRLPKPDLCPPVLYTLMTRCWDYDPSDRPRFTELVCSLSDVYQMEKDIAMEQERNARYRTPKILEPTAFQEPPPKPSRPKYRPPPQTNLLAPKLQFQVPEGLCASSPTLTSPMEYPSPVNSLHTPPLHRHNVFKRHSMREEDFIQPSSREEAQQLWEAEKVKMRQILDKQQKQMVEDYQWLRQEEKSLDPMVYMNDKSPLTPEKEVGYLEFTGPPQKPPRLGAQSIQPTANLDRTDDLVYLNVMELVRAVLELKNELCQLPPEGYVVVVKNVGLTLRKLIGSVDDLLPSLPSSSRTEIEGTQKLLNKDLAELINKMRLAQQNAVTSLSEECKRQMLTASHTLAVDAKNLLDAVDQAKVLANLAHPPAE

[23] = target: FAD-linked sulfhydryl oxidase ALR (Homo sapiens, UniProt P55789); test: inhibitors of human ALR sulfhydryl oxidase, dose response, biochemical, H2O2 detection, luminescence, cherry-pick (AID 493248)
FAD-linked sulfhydryl oxidase ALR, sequence (P55789 whole entry): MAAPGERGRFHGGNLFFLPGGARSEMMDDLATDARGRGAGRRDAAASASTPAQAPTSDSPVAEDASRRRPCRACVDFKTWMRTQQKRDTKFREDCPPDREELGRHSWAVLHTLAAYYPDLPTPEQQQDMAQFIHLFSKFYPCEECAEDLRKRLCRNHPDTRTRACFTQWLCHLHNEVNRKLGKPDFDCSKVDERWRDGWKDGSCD

[24] = target: Nonstructural protein 1 (Influenza A virus, UniProt Q194T2); type: functional, Influenza A virus (A/California/07/2009(H1N1))
Nonstructural protein 1, sequence (Q194T2 whole entry): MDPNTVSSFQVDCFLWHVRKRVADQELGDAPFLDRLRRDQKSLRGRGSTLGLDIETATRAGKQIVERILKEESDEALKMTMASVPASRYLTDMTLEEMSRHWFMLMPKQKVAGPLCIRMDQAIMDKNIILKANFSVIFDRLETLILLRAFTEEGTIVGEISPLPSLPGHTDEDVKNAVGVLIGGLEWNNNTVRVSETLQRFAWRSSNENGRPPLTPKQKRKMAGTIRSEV

[25] = target: Estrogen receptor beta (Homo sapiens, UniProt Q92731); test: ERβ–SRC-3 coactivator interaction inhibitors, confirmation, orthogonal assay, biochemical, ELISA, streptavidin-HRP readout (AID 1060)
Estrogen receptor beta, sequence (Q92731 whole entry): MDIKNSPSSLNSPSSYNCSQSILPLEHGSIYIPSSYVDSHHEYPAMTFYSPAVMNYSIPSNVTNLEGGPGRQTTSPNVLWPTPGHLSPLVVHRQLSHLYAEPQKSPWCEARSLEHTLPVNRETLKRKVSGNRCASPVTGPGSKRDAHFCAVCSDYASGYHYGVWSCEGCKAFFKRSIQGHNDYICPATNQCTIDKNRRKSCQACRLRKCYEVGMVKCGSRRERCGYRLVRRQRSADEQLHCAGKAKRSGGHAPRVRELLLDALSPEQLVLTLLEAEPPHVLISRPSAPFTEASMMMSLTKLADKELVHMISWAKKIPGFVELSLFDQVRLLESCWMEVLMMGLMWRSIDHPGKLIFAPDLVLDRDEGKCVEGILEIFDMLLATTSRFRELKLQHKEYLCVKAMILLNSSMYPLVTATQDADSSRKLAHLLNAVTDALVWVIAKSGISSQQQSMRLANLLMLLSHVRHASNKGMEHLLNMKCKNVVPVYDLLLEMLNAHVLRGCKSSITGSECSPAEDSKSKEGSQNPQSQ

[26] = target: T1, Rac GTPase-activating protein 1 (Homo sapiens, UniProt Q9H0H5); test: MgcRacGAP GTPase-activating activity inhibitors, confirmation, biochemical, ADP Hunter fluorescence, primary and confirmatory (AID 624330); type: functional
T1 sequence (Q9H0H5 whole entry): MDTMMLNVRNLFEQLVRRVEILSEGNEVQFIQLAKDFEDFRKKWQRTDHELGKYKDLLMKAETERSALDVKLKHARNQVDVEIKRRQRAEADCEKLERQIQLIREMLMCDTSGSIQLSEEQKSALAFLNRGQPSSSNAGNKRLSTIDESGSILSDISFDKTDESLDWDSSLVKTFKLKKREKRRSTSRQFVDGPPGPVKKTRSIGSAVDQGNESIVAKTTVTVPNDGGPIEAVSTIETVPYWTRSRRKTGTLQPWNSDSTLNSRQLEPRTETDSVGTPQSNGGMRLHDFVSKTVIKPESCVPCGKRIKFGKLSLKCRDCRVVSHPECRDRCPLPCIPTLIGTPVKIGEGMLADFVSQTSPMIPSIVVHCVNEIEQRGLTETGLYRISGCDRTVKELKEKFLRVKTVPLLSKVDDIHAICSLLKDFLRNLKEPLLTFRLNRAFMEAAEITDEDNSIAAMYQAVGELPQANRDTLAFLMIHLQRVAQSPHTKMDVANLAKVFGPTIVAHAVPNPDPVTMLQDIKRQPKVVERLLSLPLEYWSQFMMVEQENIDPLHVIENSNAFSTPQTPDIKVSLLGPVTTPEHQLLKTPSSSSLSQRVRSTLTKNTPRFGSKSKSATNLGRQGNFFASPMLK

[27] = target: Glutathione-S-transferase (Schistosoma japonicum, UniProt Q26513); test: biotin-GST/anti-GST TR-FRET signal inhibitors, dose response, artefact control for Vif-APOBEC3G degradation inhibitor project, biochemical (AID 1117362); type: functional
Glutathione-S-transferase, sequence (Q26513 whole entry): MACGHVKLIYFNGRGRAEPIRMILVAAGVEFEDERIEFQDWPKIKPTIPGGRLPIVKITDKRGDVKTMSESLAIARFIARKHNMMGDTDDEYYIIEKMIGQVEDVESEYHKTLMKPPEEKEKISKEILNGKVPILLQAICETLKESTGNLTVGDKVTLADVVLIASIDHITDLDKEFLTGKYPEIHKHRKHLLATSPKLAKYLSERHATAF

[28] = target: T2, DNA repair and recombination protein RAD54-like (Homo sapiens, UniProt Q92698); test: inhibitors of human RAD54 branch migration, confirmation, biochemical, fluorescence, cherry-picked samples, dose series (AID 651657); type: functional
T2 sequence (Q92698 whole entry): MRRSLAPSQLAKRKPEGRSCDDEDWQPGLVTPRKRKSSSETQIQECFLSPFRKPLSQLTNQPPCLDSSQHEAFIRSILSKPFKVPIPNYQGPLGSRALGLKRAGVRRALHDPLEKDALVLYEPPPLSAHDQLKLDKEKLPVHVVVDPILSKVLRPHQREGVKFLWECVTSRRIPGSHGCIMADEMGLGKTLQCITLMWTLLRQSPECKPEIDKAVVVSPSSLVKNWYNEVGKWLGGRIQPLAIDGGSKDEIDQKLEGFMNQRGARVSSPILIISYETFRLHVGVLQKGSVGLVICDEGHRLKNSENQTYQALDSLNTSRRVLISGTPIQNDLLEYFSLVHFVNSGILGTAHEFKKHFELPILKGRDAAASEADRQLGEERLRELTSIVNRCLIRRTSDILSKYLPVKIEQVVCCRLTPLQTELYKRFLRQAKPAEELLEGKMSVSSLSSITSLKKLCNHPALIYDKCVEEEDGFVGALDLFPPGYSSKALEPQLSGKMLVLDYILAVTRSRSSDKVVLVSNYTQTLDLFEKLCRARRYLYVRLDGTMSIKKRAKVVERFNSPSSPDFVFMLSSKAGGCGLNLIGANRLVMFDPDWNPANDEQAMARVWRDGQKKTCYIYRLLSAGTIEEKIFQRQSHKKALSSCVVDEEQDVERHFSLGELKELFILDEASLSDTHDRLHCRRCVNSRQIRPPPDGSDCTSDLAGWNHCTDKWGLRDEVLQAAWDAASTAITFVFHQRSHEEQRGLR

[29] = P. falciparum 3D7-ScDHODH growth inhibitors, dose response, SYBR Green, dry powder samples (AID 1159570); type: functional, cell-based;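 note: parasite growth measured after 72 hours of compound exposure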
[30] = P. falciparum Dd2 growth inhibitors, dose response, SYBR Green, dry powder samples (AID 1159566); type: functional, cell-based;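 note: potency for growth inhibition with lower SYBR green DNA signal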
[31] = HepG2 cell cytotoxicity, dose response, cytotoxicity control, plate reader, dry powder samples (AID 1159569); type: functional, cell-based;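 note: inhibitor potency with signal falling toward the positive control level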
[32] = P. falciparum Dd2 growth inhibitors, dose response, SYBR Green, dry powder samples, set 9 (AID 1159568); type: functional, cell-based
[33] = P. falciparum ATP4 D1247Y mutant growth inhibitors, dose response, NITD609-resistant line, SYBR Green, dry powder (AID 1159571); type: functional, cell-based;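 note: parasites synchronized at ring stage by sorbitol before testing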

For COc1ccc(C#Cc2ccc([C@@H]3[C@H](CO)N4CCCCN(C(=O)Nc5cccc(F)c5)C[C@@H]34)cc2)cc1, which AC50 [1] is on record?
Its AC50 is 10.5 µM (active).

What about the AC50 [2] of the same molecule?
The AC50 was 9.89 µM (active).

And the AC50 [3]?
The AC50 was 15.3 µM (active).

What about the AC50 [4] of the same molecule?
Its AC50 is 6.45 µM (active).

What about the AC50 [5] of the same molecule?
The AC50 was 40.6 µM (active).

And the AC50 [6]?
The AC50 was 18.1 µM (active).

And the AC50 [7]?
The AC50 was 10 µM (active).

What about the AC50 [8] of the same molecule?
Its AC50 is 1.43 µM (active).

And the AC50 [9]?
The AC50 was 16.3 µM (active).

Which AC50 [10] does the source give for COc1cccc(-c2cn(CC[C@@H]3CC[C@@H](NC(C)=O)[C@H](CO)O3)nn2)c1 here?
The AC50 was > 52 µM (inactive).

With CCCC#Cc1ccc([C@@H]2[C@@H](C#N)N(C(=O)C3CCCCC3)[C@H]2CO)cc1 as the molecule, how does the AC50 [11] read?
Its AC50 is 36 µM (active).

What about the AC50 [12] of the same molecule?
The AC50 was 18.3 µM (active).

And the AC50 [13]?
Its AC50 is 34.5 µM (active).

What about the AC50 [14] of the same molecule?
The AC50 was 41.8 µM (active).

What about the AC50 [2] of the same molecule?
The AC50 was 6.02 µM (active).

What about the AC50 [15] of the same molecule?
Its AC50 is 14.1 µM (active).

What about the AC50 [16] of the same molecule?
Its AC50 is 31 µM (active).

And the AC50 [6]?
Its AC50 is 51 µM (active).

For COC(=O)c1cc(Br)cnc1N1CCC(NC2CCC(C)CC2)CC1 (stereo unspecified), which IC50 [17] is on record?
Its IC50 is 18 µM (inactive).

What about the IC50 [18] of the same molecule?
Its IC50 is 8.6 µM (active).

With Cc1cc(C(=O)N/N=C/c2cc(Br)ccc2OC(=O)c2ccccc2)[nH]n1 as the molecule, how does the AC50 [19] read?
Its AC50 is 1.91 µM (active).

And the AC50 [20]?
The AC50 was 43.1 µM (active).

What about the AC50 [21] of the same molecule?
Its AC50 is 16.6 µM (active).

For CN1CCN(c2ccc(N)cc2)CC1, which IC50 [22] is on record?
The IC50 was 2.83 µM (active).

What about the AC50 [23] of the same molecule?
Its AC50 is 3.83 µM (active).

And the IC50 [24]?
The IC50 was 53.7 µM (active).

What about the IC50 [25] of the same molecule?
The IC50 was 7.13 µM (not active).

What about the IC50 [26] of the same molecule?
Its IC50 is 32.3 µM (active).

What about the IC50 [27] of the same molecule?
The IC50 was 18.4 µM (active).

And the AC50 [28]?
Its AC50 is 21.9 µM (active).

Which AC50 [29] does the source give for COc1ccc(C#Cc2ccc3c(c2)O[C@@H](CN(C)C(=O)Nc2cccc(OC)c2)[C@@H](C)CN([C@@H](C)CO)S3(=O)=O)cc1 here?
Its AC50 is 0.603 µM (active).

And the AC50 [30]?
The AC50 was 0.405 µM (active).

And the AC50 [31]?
Its AC50 is > 100 µM (inactive).

What about the AC50 [32] of the same molecule?
The AC50 was 0.399 µM (active).

What about the AC50 [33] of the same molecule?
The AC50 was 0.556 µM (active).

And the AC50 [8]?
The AC50 was 1.09 µM (active).
